Data reported in patent US20080190575A1, “Lignocellulosic Composite Material and Method for Preparing the Same” (priority 2004, published 2008).

Assay: Dissolvability of insecticide in solvent
Type: physicochemical
Text: It has been determined that certain polar solvents are capable of dissolving at least 10 grams of the insecticide per liter of solvent. For example, it has also been determined that water is not a sufficient polar solvent for certain insecticides, such as fipronil, because it is capable of only dissolving 2.4 milligrams per liter of water. Generally, these polar solvents that are capable of dissolving at least 10 grams of the insecticide per liter are selected from at least one of an alcohol, a ketone, and an ester. More preferably, the polar solvent is selected from the group of octyl alcohol, isopropyl alcohol, methyl alcohol, acetone, carpryl alcohol, propylene carbonate, gamma-butyrolactone, 3-pentanone, 1-methyl-2-pyrrolidinone, and combinations thereof.
In Examples 1 and 2, the lignocellulosic composite material was formed having a thickness of 0.437 inches with a density of about 39 lb/ft^3. […] The fipronil was present in an amount of about 150 PPM based on the dry weight of the lignocellulosic particles. In Example 2, 0.28 grams of fipronil were dissolved in 1.00 grams of the polar solvent to form the insecticide solution. The fipronil was present in an amount of about 30 PPM based on the dry weight of the lignocellulosic particles. The polar solvent was 1-methyl-2-pyrrolidinone (NMP). NMP is capable of dissolving about 289 grams of fipronil per liter of NMP.
In Examples 3 and 4, the lignocellulosic composite material was formed having a thickness of 0.719 inches with a density of about 40 lb/ft^3. In Example 3, 1.15 grams of fipronil were dissolved in 5 grams of the polar solvent to form the insecticide solution. The fipronil was present in an amount of about 50 PPM based on the dry weight of the lignocellulosic particles. […] The fipronil was present in an amount of about 100 PPM based on the dry weight of the lignocellulosic particles. The polar solvent in Examples 3 and 4 was 3-pentanone, which is capable of dissolving about 326 grams of fipronil per liter of 3-pentanone.

N#Cc1nn(-c2c(Cl)cc(C(F)(F)F)cc2Cl)c(N)c1[S+]([O-])C(F)(F)F (stereo not drawn) [fipronil, 5-amino-1-(2,6-dichloro-4-(trifluoromethyl)phenyl)-4-((trifluoromethyl)sulfinyl)-1H-pyrazole-3-carbonitrile]
amount dissolved per liter of NMP (solvent 1-methyl-2-pyrrolidinone (NMP)): about 289 grams per liter
amount dissolved per liter of 3-pentanone (solvent 3-pentanone): about 326 grams per liter
amount dissolved per liter of water (solvent water): 2.4 milligrams per liter
